pIC50: −log10 of the molar value.
Each compound was assayed against T1, FXR ligand binding domain (Homo sapiens, UniProt Q96RI1) (assay: Radioligand binding assay (radioligand displacement, scintillation proximity)). Conditions: GST-FXR LBD fusion protein on SPA beads, radioligand 2,N-dicyclohexyl-2-[2-(2,4 dimethoxy-phenyl)-benzoimidazol-1-yl]-acetamide, RT 30 minutes.
T1 sequence (Q96RI1 1-486): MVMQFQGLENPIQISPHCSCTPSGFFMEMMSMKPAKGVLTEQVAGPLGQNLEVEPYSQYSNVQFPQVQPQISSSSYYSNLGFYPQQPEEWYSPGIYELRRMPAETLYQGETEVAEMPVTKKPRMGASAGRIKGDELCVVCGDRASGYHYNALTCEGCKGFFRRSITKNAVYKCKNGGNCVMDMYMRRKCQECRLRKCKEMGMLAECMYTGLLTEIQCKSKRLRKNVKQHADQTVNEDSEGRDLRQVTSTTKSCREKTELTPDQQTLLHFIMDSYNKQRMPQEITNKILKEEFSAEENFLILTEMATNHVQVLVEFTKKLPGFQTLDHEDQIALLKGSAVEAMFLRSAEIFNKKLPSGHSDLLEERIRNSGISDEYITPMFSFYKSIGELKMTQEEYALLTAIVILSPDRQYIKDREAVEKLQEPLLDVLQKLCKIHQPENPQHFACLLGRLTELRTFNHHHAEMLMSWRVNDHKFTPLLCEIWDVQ
Procedure: The following tests were carried out in order to determine the activity of the compounds of formula I. Background information on the binding assay can be found in: Nichols J S et al. “Development of a scintillation proximity assay for peroxisome proliferator-activated receptor gamma ligand binding domain”, (1998) Anal. Biochem. 257: 112-119.
Bacterial and mammalian expression vectors were constructed to produce glutathione-s-transferase (GST) and Gal4 DNA binding domain (GAL) proteins fused to the ligand binding domain (LBD) of human FXR (aa 193-473). To accomplish this, the portions of the sequences encoding the FXR LBD were amplified by polymerase chain reaction (PCR) from a full-length clone by PCR and then subcloned into the plasmid vectors. The final clone was verified by DNA sequence analysis.
The induction, expression, and subsequent purification of GST-LBD fusion protein was performed in E. coli strain BL21(pLysS) cells by standard methods (Current Protocols in Molecular Biology, Wiley Press, ed. Ausubel et al).
Radioligand Binding Assay
Binding of test substances to the FXR ligand binding domain was assessed in a radioligand displacement assay. The assay was performed in a buffer consisting of 50 mM Hepes, pH 7.4, 10 mM NaCl, 5 mM MgCl2. For each reaction well in a 96-well plate, 40 nM of GST-FXR LBD fusion protein was bound to 10 μg glutathione ytrium silicate SPA beads (Pharmacia Amersham) in a final volume of 50 μl by shaking. A radioligand (eg. 40 nM) of 2,N-dicyclohexyl-2-[2-(2,4 dimethoxy-phenyl)-benzoimidazol-1-yl]-acetamide) was added, and the reaction incubated at RT for 30 minutes in the presence of test compounds followed by scintillation proximity counting. All binding assays were performed in 96-well plates and the amount of bound ligand was measured on a Packard TopCount using OptiPlates (Packard). Dose response curves were performed within a range of concentration from 6×10^−9 M to 2.5×10^−5 M.

Compound	pIC50
O=C(O)c1ccc(OCC(c2c3c(nn2-c2ccc(Cl)cc2)CCCC3)C2CCCCC2)nc1 (racemic) [Example 64, [rac]-6-{2-[2-(4-Chloro-phenyl)-4,5,6,7-tetrahydro-2H-indazol-3-yl]-2-cyclohexyl-ethoxy}-nicotinic acid]	6.60
O=C(O)C1(Oc2ccc(OC(c3c4cc(F)c(F)cc4nn3-c3ccc(Cl)cc3)C3CCCCC3)cc2)CC1 (racemic) [Example 56, [rac]-1-(4-{[2-(4-Chloro-phenyl)-5,6-difluoro-2H-indazol-3-yl]-cyclohexyl-methoxy}-phenoxy)-cyclopropanecarboxylic acid]	6.77
O=C(Nc1ccc(OC2(C(=O)O)CC2)cc1F)C(c1c2c(nn1-c1ccc(Cl)cc1)CCCC2)C1CCCCC1 (single isomer, unassigned; (+)) [Example 22, (+)-1-(4-{2-[2-(4-Chloro-phenyl)-4,5,6,7-tetrahydro-2H-indazol-3-yl]-2-cyclohexyl-acetylamino}-3-fluoro-phenoxy)-cyclopropanecarboxylic acid]	5.69
O=C(O)c1ccc(COC(c2c3c(nn2-c2ccc(Cl)cc2)CCCC3)C2CCCCC2)cc1 (racemic) [Example 28, [rac]-4-{[2-(4-Chloro-phenyl)-4,5,6,7-tetrahydro-2H-indazol-3-yl]-cyclohexyl-methoxymethyl}-benzoic acid]	6.29
Fc1cc2nn(-c3ccc(Cl)cc3)c(C(OCc3ccc(-c4nnn[nH]4)cc3)C3CCCCC3)c2cc1F (racemic) [Example 49, [rac]-2-(4-Chloro-phenyl)-3-{cyclohexyl-[4-(2H-tetrazol-5-yl)-benzyloxy]-methyl}-5,6-difluoro-2H-indazole]	8.40
N#Cc1ccc(OCC(c2c3c(nn2-c2ccc(Cl)cc2)CCCC3)C2CCCCC2)c(F)c1 (racemic) [Example 37, [rac]-4-{2-[2-(4-Chloro-phenyl)-4,5,6,7-tetrahydro-2H-indazol-3-yl]-2-cyclohexyl-ethoxy}-3-fluoro-benzonitrile]	5.46
O=C(O)c1ccc(NC(=O)C(c2c3ccccc3nn2-c2ccc(Cl)cc2)C2CCCCC2)c(F)c1 (stereo not shown) [Example 13, 4-{2-[2-(4-Chloro-phenyl)-2H-indazol-3-yl]-2-cyclohexyl-acetylamino}-3-fluoro-benzoic acid]	5.31
Cc1cc(C(=O)O)cc(C)c1OCC(c1c2c(nn1-c1ccc(Cl)cc1)CCCC2)C1CCCCC1 (racemic) [Example 40, [rac]-4-{2-[2-(4-Chloro-phenyl)-4,5,6,7-tetrahydro-2H-indazol-3-yl]-2-cyclohexyl-ethoxy}-3,5-dimethyl-benzoic acid]	6.44
O=C(NC1CCCC1)C(O)(c1c2c(nn1-c1ccc(Cl)cc1)CCCC2)C1CCCCC1 (stereo not shown) [Example 9, 2-[2-(4-Chloro-phenyl)-4,5,6,7-tetrahydro-2H-indazol-3-yl]-2-cyclohexyl-N-cyclopentyl-2-hydroxy-acetamide]	5.31
O=C(O)c1ccc(NC(=O)C(c2c3c(nn2-c2ccc(Cl)cc2)CCCC3)C2CCCCC2)c(F)c1 (stereo not shown) [Example 11, 4-{2-[2-(4-Chloro-phenyl)-4,5,6,7-tetrahydro-2H-indazol-3-yl]-2-cyclohexyl-acetylamino}-3-fluoro-benzoic acid]	5.89
Fc1cc(-c2nnn[nH]2)ccc1OCC(c1c2c(nn1-c1ccc(Cl)cc1)CCCC2)C1CCCCC1 (racemic) [Example 38, [rac]-2-(4-Chloro-phenyl)-3-{1-cyclohexyl-2-[2-fluoro-4-(1H-tetrazol-5-yl)-phenoxy]-ethyl}-4,5,6,7-tetrahydro-2H-indazole]	6.96

The remaining compounds from weak to strong by pIC50, led by results:

pIC50	Compound
5.04	COc1cccc(C(C(=O)NC2CCCCC2)c2c3ccccc3nn2-c2ccccc2)c1 (stereo not shown) [Example 2, N-Cyclohexyl-2-(3-methoxy-phenyl)-2-(2-phenyl-2H-indazol-3-yl)-acetamide]
5.13	O=C(NC1CCCCC1)C(c1ccccc1)c1c2ccccc2nn1-c1ccccc1 (stereo not shown) [Example 3, N-Cyclohexyl-2-phenyl-2-(2-phenyl-2H-indazol-3-Y1)-acetamide]
5.15	N#Cc1ccc(COC(c2c3cc(F)c(F)cc3nn2-c2ccc(Cl)cc2)C2CCCCC2)c(F)c1 (racemic) [Example 41, [rac]-4-{[2-(4-Chloro-phenyl)-5,6-difluoro-2H-indazol-3-yl]-cyclohexyl-methoxymethyl}-3-fluoro-benzonitrile]
5.55	O=C(Nc1ccc(F)cc1F)C(c1c2c(nn1-c1ccc(Cl)cc1)CCCC2)C1CCCCC1 (racemic) [Example 14, [rac]-2-[2-(4-Chloro-phenyl)-4,5,6,7-tetrahydro-2H-indazol-3-yl]-2-cyclohexyl-N-(2,4-difluoro-phenyl)-acetamide]
5.67	Cc1cc(C(=O)O)cc(C)c1OC(c1c2cc(F)c(F)cc2nn1-c1ccc(Cl)cc1)C1CCCCC1 (racemic) [Example 34, [rac]-4-{[2-(4-Chloro-phenyl)-5,6-difluoro-2H-indazol-3-yl]-cyclohexyl-methoxy}-3,5-dimethyl-benzoic acid]
5.86	O=C(NC1CCCCC1)C(c1c2ccccc2nn1-c1ccc(Cl)cc1)C1CCCCC1 (stereo not shown) [Example 4, 2-[2-(4-Chloro-phenyl)-2H-indazol-3-yl]-2,N-dicyclohexyl-acetamide]
6.14	O=C(O)c1ccc(OCC(c2c3ccccc3nn2-c2ccc(Cl)cc2)C2CCCCC2)nc1 (racemic) [Example 53, [rac]-6-{2-[2-(4-Chloro-phenyl)-2H-indazol-3-yl]-2-cyclohexyl-ethoxy}-nicotinic acid]
6.44	O=C(O)c1ccc(COC(c2c3ccccc3nn2-c2ccc(Cl)cc2)C2CCCCC2)cc1 (racemic) [Example 18]
6.89	O=C(O)CCc1ccc(NC(=O)C(c2c3c(nn2-c2ccc(Cl)cc2)CCCC3)C2CCCCC2)c(F)c1 (racemic) [Example 61, [rac]-3-(4-{2-[2-(4-Chloro-phenyl)-4,5,6,7-tetrahydro-2H-indazol-3-yl]-2-cyclohexyl-acetylamino}-3-fluoro-phenyl)-propionic acid]
7.24	Fc1cc2nn(-c3ccc(Cl)cc3)c(C(Oc3ccc(-c4nnn[nH]4)cc3F)C3CCCCC3)c2cc1F (racemic) [Example 50, [rac]-2-(4-Chloro-phenyl)-3-{cyclohexyl-[2-fluoro-4-(1H-tetrazol-5-yl)-phenoxy]-methyl}-5,6-difluoro-2H-indazole]
7.28	O=C(Nc1ccc(-c2nnn[nH]2)cc1F)C(c1c2c(nn1-c1ccc(Cl)cc1)CCCC2)C1CCCCC1 (racemic) [Example 58, [rac]-2-[2-(4-Chloro-phenyl)-4,5,6,7-tetrahydro-2H-indazol-3-yl]-2-cyclohexyl-N-[2-fluoro-4-(1H-tetrazol-5-yl)-phenyl]-acetamide]
7.35	O=C(Nc1ccc(-c2nnn[nH]2)cc1)C(c1c2c(nn1-c1ccc(Cl)cc1)CCCC2)C1CCCCC1 (racemic) [Example 57, [rac]-2-[2-(4-Chloro-phenyl)-4,5,6,7-tetrahydro-2H-indazol-3-yl]-2-cyclohexyl-N[4-(1H-tetrazol-5-yl)-phenyl]-acetamide]
7.54	Cc1cc(C(=O)O)cc(C)c1OCC(c1c2cc(F)c(F)cc2nn1-c1ccc(Cl)cc1)C1CCCCC1 (racemic) [Example 43, [rac]-4-{2-[2-[4-Chloro-phenyl]-5,6-difluoro-2H-indazol-3-yl]-2-cyclohexyl-ethoxy}-3,5-dimethyl-benzoic acid]
8.70	Clc1ccc(-n2nc3ccccc3c2C(OCc2ccc(-c3nnn[nH]3)cc2)C2CCCCC2)cc1 (racemic) [Example 47, [rac]-2-(4-Chloro-phenyl)-3-{cyclohexyl-[4-(2H-tetrazol-5-yl)-benzyloxy]-methyl}-2H-indazole]

— patent US8008505B2, “Indazole or 4,5,6,7-tetrahydro-indazole derivatives” (Hoffmann-La Roche Inc., priority 2008, dated 2011)
